{"source": "ChEMBL document CHEMBL1201862", "about": "“PubChem BioAssay data set” (2004)", "key": {"[1]": {"target": "T1, Dual specificity protein phosphatase 6 (Rattus norvegicus, UniProt Q64346)", "T1 sequence (Q64346 whole entry)": "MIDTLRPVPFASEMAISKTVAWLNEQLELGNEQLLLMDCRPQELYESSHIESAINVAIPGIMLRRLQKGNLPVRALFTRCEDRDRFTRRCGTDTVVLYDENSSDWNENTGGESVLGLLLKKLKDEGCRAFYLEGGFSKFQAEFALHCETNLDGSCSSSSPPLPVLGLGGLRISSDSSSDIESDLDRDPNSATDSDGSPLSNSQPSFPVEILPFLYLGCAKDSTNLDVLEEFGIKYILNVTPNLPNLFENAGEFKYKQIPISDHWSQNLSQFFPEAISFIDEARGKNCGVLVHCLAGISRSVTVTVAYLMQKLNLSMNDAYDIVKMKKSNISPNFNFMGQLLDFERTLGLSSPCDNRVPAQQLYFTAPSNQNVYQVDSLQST", "assay": "MKP-3 phosphatase inhibitors, primary screen, biochemical, rat enzyme, in vitro (AID 425)"}, "[2]": {"assay": "inhibitors of firefly luciferase expression or activity, dose response, H4 neuroglioma cells, luminescence (AID 1990)", "type": "functional, cell-based"}, "[3]": {"system": "BJ", "assay": "cytotoxicity toward BJ-TERT fibroblasts, dose response, cell-based, RAS-independent, luminescence (AID 1933)", "type": "functional", "details": "Homo sapiens"}, "[4]": {"assay": "Luminescence Cell-Based Dose Response HTS to Identify Inhibitors of 5'UTR Stem-Loop Driven Prion Protein mRNA Translation in H4 Neuroglioblastoma Cells. [Related pubchem assays: 1827 (Project Summary), 1813 (Primary HTS)]", "type": "functional"}, "[5]": {"assay": "inhibitors of SNCA 5'UTR-driven reporter translation, confirmation, H4 neuroglioma cells, luminescence (AID 1988)", "type": "functional, cell-based"}, "[6]": {"system": "BJ", "assay": "cells", "type": "functional, cell-based", "details": "Homo sapiens"}, "[7]": {"system": "BJ", "assay": "cytotoxicity toward BJ-TERT-LT-ST fibroblasts, dose response, cell-based, RAS-independent, luminescence (AID 1935);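 note: BJ fibroblasts immortalized with TERT plus LT and ST oncogenes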", "type": "functional", "details": "Homo sapiens"}, "[8]": {"assay": "cytotoxicity toward DRD oncogenic fibroblasts, dose response, cell-based, non-viral oncogenic, luminescence (AID 1934)", "type": "functional", "details": "Homo sapiens"}, "[9]": {"target": "T2, Replicative DNA helicase DnaB (Mycobacterium tuberculosis, UniProt P9WMR3)", "T2 sequence (P9WMR3 whole entry)": "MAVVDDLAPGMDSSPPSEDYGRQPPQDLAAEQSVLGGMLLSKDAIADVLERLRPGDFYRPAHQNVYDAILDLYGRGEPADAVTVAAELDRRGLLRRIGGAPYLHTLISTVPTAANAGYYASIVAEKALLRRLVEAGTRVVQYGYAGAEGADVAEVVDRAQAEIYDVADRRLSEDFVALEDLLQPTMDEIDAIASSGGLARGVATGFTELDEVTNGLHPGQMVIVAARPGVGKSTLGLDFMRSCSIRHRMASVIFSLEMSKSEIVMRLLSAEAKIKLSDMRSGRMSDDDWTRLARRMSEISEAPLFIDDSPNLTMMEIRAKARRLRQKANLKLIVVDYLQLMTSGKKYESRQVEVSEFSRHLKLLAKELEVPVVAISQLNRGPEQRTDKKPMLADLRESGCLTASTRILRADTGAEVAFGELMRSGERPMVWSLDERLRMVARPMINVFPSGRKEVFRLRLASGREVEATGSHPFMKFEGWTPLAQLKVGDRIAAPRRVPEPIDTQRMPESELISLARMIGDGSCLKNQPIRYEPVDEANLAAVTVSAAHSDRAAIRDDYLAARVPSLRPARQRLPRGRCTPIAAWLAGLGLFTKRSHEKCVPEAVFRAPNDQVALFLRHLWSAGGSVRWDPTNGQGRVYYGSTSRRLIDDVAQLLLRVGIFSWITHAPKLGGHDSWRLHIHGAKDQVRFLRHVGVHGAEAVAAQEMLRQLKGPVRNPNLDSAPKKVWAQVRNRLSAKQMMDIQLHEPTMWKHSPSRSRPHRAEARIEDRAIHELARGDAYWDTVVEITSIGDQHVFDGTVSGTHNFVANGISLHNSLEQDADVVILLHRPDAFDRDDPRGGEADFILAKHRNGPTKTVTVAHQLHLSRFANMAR", "assay": "DnaB intein splicing inhibitors, dose response, biochemical, cell-free fluorescence (AID 449749)", "type": "functional"}, "[10]": {"system": "BJ", "assay": "cytotoxicity toward Ras-transformed BJeLR fibroblasts, dose response, cell-based, alamar blue fluorescence, cherrypicked samples (AID 2631)", "type": "functional", "details": "Homo sapiens"}, "[11]": {"target": "T3, Protein RecA (Mycobacterium tuberculosis, UniProt P9WHJ3)", "T3 sequence (P9WHJ3 whole entry)": "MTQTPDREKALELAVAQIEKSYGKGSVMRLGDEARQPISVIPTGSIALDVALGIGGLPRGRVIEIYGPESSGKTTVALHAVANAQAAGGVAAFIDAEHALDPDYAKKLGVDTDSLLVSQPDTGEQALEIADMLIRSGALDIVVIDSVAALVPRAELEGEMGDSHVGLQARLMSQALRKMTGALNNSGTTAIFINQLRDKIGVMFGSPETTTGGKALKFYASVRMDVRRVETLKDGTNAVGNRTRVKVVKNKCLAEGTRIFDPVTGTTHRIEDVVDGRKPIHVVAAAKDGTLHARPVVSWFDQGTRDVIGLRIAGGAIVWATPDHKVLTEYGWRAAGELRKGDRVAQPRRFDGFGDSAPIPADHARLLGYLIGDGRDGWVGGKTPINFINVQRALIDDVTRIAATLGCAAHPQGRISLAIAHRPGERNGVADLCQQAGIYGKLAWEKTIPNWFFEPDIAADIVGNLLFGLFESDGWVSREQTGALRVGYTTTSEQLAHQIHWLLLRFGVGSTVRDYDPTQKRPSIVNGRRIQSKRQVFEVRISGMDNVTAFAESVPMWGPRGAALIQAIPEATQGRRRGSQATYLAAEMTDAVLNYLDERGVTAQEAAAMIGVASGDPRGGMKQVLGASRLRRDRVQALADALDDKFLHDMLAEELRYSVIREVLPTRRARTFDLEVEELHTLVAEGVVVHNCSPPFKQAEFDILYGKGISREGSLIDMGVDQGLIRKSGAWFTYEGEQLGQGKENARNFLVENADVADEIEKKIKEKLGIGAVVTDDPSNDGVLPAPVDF", "assay": "Fluorescence Cell-Free Homogeneous Dose Retest to Identify Inhibitors of RecA-Intein Splicing Activity. [Related pubchem assays (depositor defined):AID2097, AID2223, AID489010, AID492950]", "type": "functional"}, "[12]": {"system": "INS1", "assay": "beta cell apoptosis inhibitors, cytokine rescue, dose response, luminescence, retest (AID 449756);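 note: cell death triggered by IL-1 beta plus TNF-alpha plus IFN-gamma mixture; protective hits raise ATP signal compared with cytokine alone wells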", "type": "functional, cell-based", "details": "Rattus norvegicus"}, "[13]": {"assay": "Shn3 3'UTR reporter inhibitors, dose response, cell-based, Clone20 osteoblasts, firefly luciferase, cherry-picked (AID 624132)", "type": "functional"}, "[14]": {"assay": "HepG2 cell cytotoxicity, dose response, cytotoxicity control for Shn3 inhibitor project, CellTiter-Glo, cherry-picked (AID 624134)", "type": "functional, cell-based"}, "[15]": {"assay": "control 3'UTR Renilla luciferase suppression, dose response, counter-screen for Shn3 inhibitor project, cell-based, Clone20-Shn3RL, cherry-picked (AID 624133)", "type": "functional"}, "[16]": {"assay": "Fluorescence-based cell-based high throughput dose response assay for inhibitors of the interaction of nucleotide-binding oligomerization domain containing 2 (NOD2) and the receptor-interacting serine-threonine kinase 2 (RIPK2).", "type": "functional", "details": "Homo sapiens"}, "[17]": {"target": "T4, Caspase-6 (Homo sapiens, UniProt P55212)", "T4 sequence (P55212 whole entry)": "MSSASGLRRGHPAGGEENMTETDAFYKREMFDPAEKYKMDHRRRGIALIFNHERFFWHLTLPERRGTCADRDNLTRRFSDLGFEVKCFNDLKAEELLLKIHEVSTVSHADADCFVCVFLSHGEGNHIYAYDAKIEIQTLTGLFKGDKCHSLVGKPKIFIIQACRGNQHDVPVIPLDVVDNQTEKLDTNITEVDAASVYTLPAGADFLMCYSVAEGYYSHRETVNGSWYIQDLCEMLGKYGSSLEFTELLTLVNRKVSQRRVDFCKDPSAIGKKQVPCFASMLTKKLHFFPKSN", "assay": "human caspase-6 inhibitors, dose response, biochemical, VEID-R110 fluorescence, cherry-pick (AID 720632)"}, "[18]": {"system": "H9c2", "assay": "cells", "type": "functional, cell-based", "details": "Rattus norvegicus, H9c2, Myocardium"}, "[19]": {"assay": "Vero cell cytotoxicity, dose response, cytotoxicity control for Vif-APOBEC3G degradation inhibitor project, Vero cells (AID 1117358)", "type": "functional", "details": "Human immunodeficiency virus 1, Vero"}, "[20]": {"target": "Cytochrome P450 2C19 (Homo sapiens, UniProt P33261)", "sequence (P33261 whole entry)": "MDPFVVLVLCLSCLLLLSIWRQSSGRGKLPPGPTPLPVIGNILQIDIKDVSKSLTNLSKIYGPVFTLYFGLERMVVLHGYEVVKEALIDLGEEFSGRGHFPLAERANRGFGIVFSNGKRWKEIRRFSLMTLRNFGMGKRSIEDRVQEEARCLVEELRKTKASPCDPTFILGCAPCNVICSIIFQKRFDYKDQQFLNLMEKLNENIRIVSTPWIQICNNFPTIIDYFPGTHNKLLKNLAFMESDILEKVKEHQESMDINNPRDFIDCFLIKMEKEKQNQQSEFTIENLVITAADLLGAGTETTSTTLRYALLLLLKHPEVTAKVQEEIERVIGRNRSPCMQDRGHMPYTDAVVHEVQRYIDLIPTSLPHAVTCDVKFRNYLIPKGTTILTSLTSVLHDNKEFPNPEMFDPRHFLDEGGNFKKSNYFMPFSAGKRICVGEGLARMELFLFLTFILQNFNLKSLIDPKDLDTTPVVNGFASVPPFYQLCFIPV", "assay": "Cytochrome panel assay with activity outcomes. Panel member name: p450-cyp2c19 Compounds with AC50 equal or less than 10 uM are considered active", "type": "functional", "details": "read-out: AC50"}, "[21]": {"target": "T5, Cytochrome P450 1A2 (Homo sapiens, UniProt P05177)", "T5 sequence (P05177 whole entry)": "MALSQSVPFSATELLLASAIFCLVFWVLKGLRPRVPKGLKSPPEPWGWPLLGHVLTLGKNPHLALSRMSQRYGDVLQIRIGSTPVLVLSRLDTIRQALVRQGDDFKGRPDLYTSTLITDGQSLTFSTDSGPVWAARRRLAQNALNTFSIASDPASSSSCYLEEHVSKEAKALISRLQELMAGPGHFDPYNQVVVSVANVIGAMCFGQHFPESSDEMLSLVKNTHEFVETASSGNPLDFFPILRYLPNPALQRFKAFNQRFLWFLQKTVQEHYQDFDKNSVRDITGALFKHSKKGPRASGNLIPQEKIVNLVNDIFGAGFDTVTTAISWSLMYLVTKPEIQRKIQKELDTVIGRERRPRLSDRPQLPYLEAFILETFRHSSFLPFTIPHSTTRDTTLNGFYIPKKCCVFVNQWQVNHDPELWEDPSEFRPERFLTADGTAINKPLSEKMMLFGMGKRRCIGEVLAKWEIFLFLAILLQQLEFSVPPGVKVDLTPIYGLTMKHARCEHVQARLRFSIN"}, "[22]": {"target": "Cytochrome P450 2C9 (Homo sapiens, UniProt P11712)", "sequence (P11712 whole entry)": "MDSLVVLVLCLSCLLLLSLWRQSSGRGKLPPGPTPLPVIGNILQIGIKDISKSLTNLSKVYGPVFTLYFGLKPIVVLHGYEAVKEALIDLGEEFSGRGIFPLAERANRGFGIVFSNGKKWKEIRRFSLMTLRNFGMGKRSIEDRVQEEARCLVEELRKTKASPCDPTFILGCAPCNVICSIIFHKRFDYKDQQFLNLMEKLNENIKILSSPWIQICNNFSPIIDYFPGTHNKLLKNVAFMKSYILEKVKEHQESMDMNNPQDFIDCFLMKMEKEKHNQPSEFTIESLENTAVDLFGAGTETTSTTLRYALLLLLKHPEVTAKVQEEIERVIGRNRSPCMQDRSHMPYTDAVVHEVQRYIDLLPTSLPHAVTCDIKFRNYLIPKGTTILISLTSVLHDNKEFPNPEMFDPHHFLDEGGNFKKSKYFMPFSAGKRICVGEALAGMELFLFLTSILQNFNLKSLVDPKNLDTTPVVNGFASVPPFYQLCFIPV"}}, "note": "Active and inactive are the calls of the source."}
{"compound": "O=C(CN(Cc1ccco1)C(=O)CNS(=O)(=O)c1ccc(F)cc1)NCCc1ccccc1", "values": [{"measurement": "IC50", "setting": "[1]", "result": "> 100 µM (not active)"}]}
{"compound": "O=C(Nc1ccc2nc3n(c(=O)c2c1)CCCCC3)c1c(F)ccc([N+](=O)[O-])c1F", "values": [{"measurement": "EC50", "setting": "[2]", "result": "> 120 µM (not active)"}, {"measurement": "EC50", "setting": "[3]", "result": "17.7 µM (active)"}, {"measurement": "EC50", "setting": "[4]", "result": "> 120 µM (not active)"}, {"measurement": "EC50", "setting": "[5]", "result": "> 120 µM (not active)"}, {"measurement": "EC50", "setting": "[6]", "result": "> 150 µM (inconclusive)"}, {"measurement": "EC50", "setting": "[7]", "result": "50.7 µM (inconclusive)"}, {"measurement": "EC50", "setting": "[8]", "result": "4.04 µM (inconclusive)"}, {"measurement": "AC50", "setting": "[9]", "result": "14.8 µM (active)"}, {"measurement": "EC50", "setting": "[10]", "result": "571 nM (active)"}, {"measurement": "EC50", "setting": "[11]", "result": "5.17 µM (active)"}, {"measurement": "AC50", "setting": "[12]", "result": "6.28 µM (active)"}, {"measurement": "AC50", "setting": "[13]", "result": "2.3 µM (active)"}, {"measurement": "AC50", "setting": "[14]", "result": "12.5 µM (active)"}, {"measurement": "AC50", "setting": "[15]", "result": "4.65 µM (active)"}, {"measurement": "IC50", "setting": "[16]", "result": "8.8 µM (active)"}, {"measurement": "AC50", "setting": "[17]", "result": "4.39 µM (active)"}]}
{"compound": "Cc1ccc(C)c2nc(O)c(CN(Cc3ccc4c(c3)OCO4)Cc3nnnn3Cc3ccco3)cc12", "values": [{"measurement": "IC50", "setting": "[18]", "result": "> 79 µM (inactive)"}, {"measurement": "CC50", "setting": "[19]", "result": "> 40 µM (active)"}]}
{"compound": "O=C(NNC(=O)c1ccccc1-n1cccc1)c1ccc(Cl)c(Cl)c1", "values": [{"measurement": "AC50", "setting": "[20]", "result": "3.98 µM (inconclusive)"}, {"measurement": "CC50", "setting": "[19]", "result": "> 40 µM (active)"}, {"measurement": "AC50", "setting": "[21]", "result": "25.1 µM (inconclusive)"}, {"measurement": "AC50", "setting": "[22]", "result": "inconclusive"}]}
